Experimental data published in patent publication US20130217702A1 (Richter Gedeon Nyrt., priority 2010, published 2013).

Key:
[1] = molecular target: T1, human recombinant bradykinin B1 receptor (Homo sapiens, UniProt P46663); assay: Human recombinant bradykinin B1 receptor competitive radioligand binding; settings: hB1 expressed in CHO cells, [3H]-[Des-Arg10] Kallidin radioligand; read-out: B1 binding
T1 construct: host or cells: CHO cells, clone hB1-A5
T1 sequence (P46663 1-353): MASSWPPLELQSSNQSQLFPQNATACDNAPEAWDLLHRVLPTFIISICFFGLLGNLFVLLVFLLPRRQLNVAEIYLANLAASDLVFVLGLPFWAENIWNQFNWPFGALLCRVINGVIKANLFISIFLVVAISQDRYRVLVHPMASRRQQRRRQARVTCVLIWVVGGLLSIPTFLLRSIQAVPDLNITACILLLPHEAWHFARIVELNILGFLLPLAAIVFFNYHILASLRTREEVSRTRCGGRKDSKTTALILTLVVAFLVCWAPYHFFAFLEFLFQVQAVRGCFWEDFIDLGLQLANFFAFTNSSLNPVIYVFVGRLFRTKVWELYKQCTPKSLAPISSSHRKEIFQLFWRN
Procedure: Assessment of Ligand Binding Affinity to B1 and B2 Receptors In Vitro by Competitive Radioligand Binding Assay
Binding assays were carried out on human recombinant bradykinin) receptors (expressed in CHO cells, hB1-A5) according to the Euroscreen Technical Data Sheet (Cat.No.:ES-091). 20 μg protein/tube was incubated with [3,4-prolyl-3,4-^3H(N)]-[Des-Arg^10] Kallidin as radioligand. Non specific binding was determined in the presence of 10 μM Lys-des-Arg^9-Bradykinin. The final incubation volume was 250 μl. Samples were incubated for 15 min. at 25° C. then were rapidly vacuum filtered through GF/B filters presoaked for at least 1 h in 0.5% PEI. Radioactivity was determined by liquid scintillation spectroscopy.
The ligand displacement by the compounds was determined using a minimum of seven concentrations in triplicate, and experiments were repeated at least two times. The specific radioligand binding is defined as the difference between total binding and the non-specific binding determined in the presence of an excess of unlabelled ligand. Results are expressed as a percent inhibition of specific binding obtained in the presence of RGH-478 or reference drugs. IC50 values (i.e. concentration of compound giving 50% inhibition of specific binding) were calculated from concentration-displacement curves by sigmoidal fitting using GraphPad Prism Software 4.0. Ki values (i.e. inhibition constants) were calculated using the Cheng-Prusoff equation. KD was determined from the Scatchard plot. (Editor-in-chief: Enna, S. J. and Williams, M. Current protocols in pharmacology vol. 1. John Wiley & sons Inc., 1998)

[2] = molecular target: T2, recombinant human B1 receptors (Homo sapiens, UniProt P46663); assay: Functional assay: antagonist potency by cytosolic calcium measurement (plate reader fluorimeter) in CHO-B1 cells, agonist LysDABK; type: cell-based; settings: CHO-B1 cells, inhibition of LysDABK (EC80)-evoked [Ca2+]i elevation; read-out: B1 func.
T2 construct: host or cells: CHO (CHO-B1)
T2 sequence (P46663 1-353): T1 sequence (P46663 1-353)
Procedure: Assessment of Antagonist Potency at B1 Receptors In Vitro by Measurement of Cytosolic Calcium Ion Concentration with a Plate Reader Fluorimeter in Cells Expressing Recombinant Human B1 Receptors
Chinese hamster ovary (CHO) cells stably expressing recombinant human B1 (CHO-B1, Euroscreen) receptors were cultured in Dulbecco's Modified Eagle's Medium (DMEM) containing 10% Fetal Calf Serum (FCS), 100 U/ml penicillin, 0.1 mg/ml streptomycin, 0.25 μg/ml amphotericin B, 1% Minimum Essential Medium Eagle (MEM), non essential amino acid solution, 600 μg/ml G418. Cells were kept at 37° C. in a humidified incubator in an atmosphere of 5% CO2/95% air and were passaged 1:4 three times a week. Cells were plated at 1.5−2.5×10^4 cell/well on standard 96-well microplates, measurements of cytosolic calcium ion concentration ([Ca^2+]i) were carried out 1-2 days after cell plating.
Measurements of [Ca^2+]i were carried out on CHO-B1 cells stably expressing human B1 receptors, respectively. Cells were grown in standard 96-well microplates and before the measurement were loaded with a fluorescent Ca^2+-sensitive dye, fluo-4/AM (2 μM): after removing the culture medium the dye was added to the cells (dissolved in assay buffer: 145 mM NaCl, 5 mM KCl, 2 mM MgCl2, 2 mM CaCl2, 10 mM HEPES, 20 mM D-glucose, 2 mM probenecid, 100 μl/well) and cells were incubated at 37° C. in a humidified incubator in an atmosphere of 5% CO2/95% air for 40-120 min. To stop dye loading cells were washed twice with assay buffer. After washing, various concentrations of the test compounds (diluted in extracellular medium from a DMSO stock solution, final DMSO concentration was <0.1%) or buffer were added to each well depending on the experimental setup. After incubation at 37° C. for 20-25 min. baseline and agonist-evoked changes of [Ca^2+]; were measured column by column with a plate reader fluorimeter (Fluoroskan Ascent, Labsystems). Excitation and detection of emission was carried out from the bottom of the plate. Filters used for Fluo-4: excitation filter 485 nm, emission filter 538 nm. The whole measurement process was performed at 37° C. and was controlled by custom software. Inhibitory potency of the test compounds was assessed by measuring the reduction in the agonist-evoked [Ca^2+]i-elevation in the presence of different concentrations of the compounds. The agonist was LysDABK for CHO-B1 cells. Agonist was applied at an EC80 concentration; the EC80-values were derived from daily determined dose-response curves. Fluorescence data were expressed as ΔF/F (fluorescence change normalized to baseline). All treatments on a single plate were measured in multiple wells. Data from all wells with the same treatment were averaged and the average values were used for analysis. Inhibitory potency of a compound at a single concentration point was expressed as percent inhibition of the control agonist response. Sigmoidal concentration-inhibition curves were fitted to the data (derived from at least three independent experiments) and IC50-values were determined as the concentration that produces half of the maximal inhibition caused by the compound.

Which Ki [1] does the source give for `COc1cc(C(=O)NC2(C(=O)NCc3ccc(-n4c(C(=O)N(C)C)c(Cl)c5ccccc54)cc3)CC2)on1` [Example 35, 3-Chloro-1-{4-[({1-[(3-methoxy-isoxazole-5-carbonyl)-amino]-cyclopropane-carbonyl}-amino)-methyl]-phenyl}-1H-indole-2-carboxylic acid dimethylamide] here?
Its Ki is less than 20 nM.

What about the IC50 [2] of the same molecule?
Its IC50 is 20 to 100 nM.

How did the Ki [1] turn out when `Cn1nnc(-c2cc3ccccc3n2-c2ccc(CNC(=O)C3(NC(=O)C(F)(F)F)CC3)cc2)n1` [Example 36, 1-(2,2,2-Trifluoro-acetylamino)-cyclopropanecarboxylic acid 4-[2-(2-methyl-2H-tetrazol-5-yl)-indol-1-yl]-benzylamide] was run?
The Ki was less than 20 nM.

What about the IC50 [2] of the same molecule?
The IC50 was less than 20 nM.

How did the Ki [1] turn out when `COc1cc(C(=O)NC2(C(=O)NCc3ccc(-n4c(-c5nnc(C)o5)c(Cl)c5cc(F)ccc54)cc3)CC2)on1` [Example 37, 3-Methoxy-isoxazole-5-carboxylic acid (1-{4-[3-chloro-5-fluoro-2-(5-methyl-[1,3,4]oxadiazol-2-yl)-indol-1-yl]-benzylcarbamoyl}-cyclopropyl)-amide] was run?
The Ki was less than 20 nM.

And the IC50 [2]?
The IC50 was less than 20 nM.

How did the Ki [1] turn out when `COc1cc(C(=O)NC2(C(=O)NCc3ccc(-n4c(-c5ncc(C)o5)c(Cl)c5ccccc54)cc3)CC2)on1` [Example 38, 3-Methoxy-isoxazole-5-carboxylic acid (1-{4-[3-chloro-2-(5-methyl-oxazol-2-yl)-indol-1-yl]-benzylcarbamoyl}-cyclopropyl)-amide] was run?
The Ki was less than 20 nM.

What about the IC50 [2] of the same molecule?
The IC50 was 20 to 100 nM.

Which results are given for `COc1cc(C(=O)NC2(C(=O)NCc3ccc(-n4c(C#N)c(Cl)c5ccccc54)cc3)CC2)on1` [Example 39, 3-Methoxy-isoxazole-5-carboxylic acid {1-[4-(3-chloro-2-cyano-indol-1-yl)-benzyl-carbamoyl]-cyclopropyl}-amide]?
Ki [1]: < 20 nM; IC50 [2]: < 20 nM

Which results are given for `Cc1nc(-c2c(Cl)c3ccccc3n2-c2ccc([C@@H](C)NC(=O)C3(NC(=O)C(F)(F)F)CC3)cc2)no1` [Example 40, (R)-1-(2,2,2-Trifluoro-acetylamino)-cyclopropanecarboxylic acid (1-{4-[3-chloro-2-(5-methyl-[1,2,4]oxadiazol-3-yl)-indol-1-yl]-phenyl}-ethyl)-amide]?
Ki [1]: < 20 nM; IC50 [2]: < 20 nM

Which results are given for `COc1cc(C(=O)NC2(C(=O)N[C@H](C)c3ccc(-n4c(-c5noc(C)n5)c(Cl)c5ccccc54)cc3)CC2)on1` [Example 41, (R)-3-Methoxy-isoxazole-5-carboxylic acid [1-(1-{4-[3-chloro-2-(5-methyl-[1,2,4]oxadiazol-3-yl)-indol-1-yl]-phenyl}-ethylcarbamoyl)-cyclopropyl]-amide]?
Ki [1]: < 20 nM; IC50 [2]: < 20 nM

Which Ki [1] does the source give for `CCCc1cc(C(=O)NC2(C(=O)NCc3ccc(-n4c(-c5noc(C)n5)c(Cl)c5ccccc54)cc3)CC2)on1` [Example 42, 3-Propyl-isoxazole-5-carboxylic acid (1-{4-[3-chloro-2-(5-methyl-[1,2,4]oxadiazol-3-yl)-indol-1-yl]-benzylcarbamoyl}-cyclopropyl)-amide] here?
Its Ki is less than 20 nM.

What about the IC50 [2] of the same molecule?
The IC50 was less than 20 nM.

What does the source list for `COc1cc(C(=O)NC2(C(=O)NCc3ccc(-n4c(C#N)cc5cc(Cl)ccc54)cc3)CC2)on1` [Example 43, 3-Methoxy-isoxazole-5-carboxylic acid {1-[4-(5-chloro-2-cyano-indol-1-yl)-benzylcarbamoyl]-cyclopropyl}-amide]?
Ki [1]: < 20 nM; IC50 [2]: 20 to 100 nM

Which results are given for `COc1ccc2c(c1)cc(C#N)n2-c1ccc(CNC(=O)C2(NC(=O)c3cncc(C(F)(F)F)c3)CC2)cc1` [Example 44, N-{1-[4-(2-Cyano-5-methoxy-indol-1-yl)-benzylcarbamoyl]-cyclopropyl}-5-trifluoromethyl-nicotinamide]?
Ki [1]: < 20 nM; IC50 [2]: < 20 nM

`N#Cc1cc2cc(F)ccc2n1-c1ccc(CNC(=O)C2(NC(=O)c3cncc(C(F)(F)F)c3)CC2)cc1` [Example 45, N-{1-[4-(2-Cyano-5-fluoro-indol-1-yl)-benzylcarbamoyl]-cyclopropyl}-5-trifluoromethyl-nicotinamide] was tested. Which Ki [1] did it give?
The Ki was less than 20 nM.

And the IC50 [2]?
Its IC50 is less than 20 nM.

What does the source list for `Cc1nc(-c2cc3cc(F)ccc3n2-c2ccc(CNC(=O)C3(NC(=O)c4cncc(C(F)(F)F)c4)CC3)cc2)no1` [Example 46, N-(1-{4-[5-Fluoro-2-(5-methyl-[1,2,4]oxadiazol-3-yl)-indol-1-yl]-benzylcarbamoyl}-cyclopropyl)-5-trifluoromethyl-nicotinamide]?
Ki [1]: < 20 nM; IC50 [2]: < 20 nM

Which Ki [1] does the source give for `COc1cc(C(=O)NC2(C(=O)NCc3ccc(-n4c(-c5noc(C)n5)cc5cc(F)ccc54)cc3)CC2)on1` [Example 47, 3-Methoxy-isoxazole-5-carboxylic acid (1-{4-[5-fluoro-2-(5-methyl-[1,2,4]oxadiazol-3-yl)-indol-1-yl]-benzylcarbamoyl}-cyclopropyl)-amide] here?
The Ki was less than 20 nM.

What about the IC50 [2] of the same molecule?
The IC50 was less than 20 nM.

With `COc1ccc2c(c1)cc(C#N)n2-c1ccc(CNC(=O)C2(NC(=O)c3cc(OC)no3)CC2)cc1` [Example 48, 3-Methoxy-isoxazole-5-carboxylic acid {1-[4-(2-cyano-5-methoxy-indol-1-yl)-benzylcarbamoyl]-cyclopropyl}-amide] as the molecule, how does the Ki [1] read?
Its Ki is less than 20 nM.

What about the IC50 [2] of the same molecule?
The IC50 was less than 20 nM.

Which results are given for `COc1cc(C(=O)NC2(C(=O)NCc3ccc(-n4c(C#N)cc5cc(F)ccc54)cc3)CC2)on1` [Example 49, 3-Methoxy-isoxazole-5-carboxylic acid {1-[4-(2-cyano-5-fluoro-indol-1-yl)-benzylcarbamoyl]-cyclopropyl}-amide]?
Ki [1]: < 20 nM; IC50 [2]: < 20 nM

Which Ki [1] does the source give for `COc1ccc2c(c1)c(Cl)c(-c1nc(C)no1)n2-c1ccc(CNC(=O)C2(NC(=O)c3cncc(C(F)(F)F)c3)CC2)cc1` [Example 50, N-(1-{4-[3-Chloro-5-methoxy-2-(3-methyl-[1,2,4]oxadiazol-5-yl)-indol-1-yl]-benzyl-carbamoyl}-cyclopropyl)-5-trifluoromethyl-nicotinamide] here?
Its Ki is less than 20 nM.

What about the IC50 [2] of the same molecule?
The IC50 was less than 20 nM.

`COc1ccc2c(c1)c(Cl)c(-c1nc(C)no1)n2-c1ccc(CNC(=O)C2(NC(=O)c3cc(OC)no3)CC2)cc1` [Example 51, 3-Methoxy-isoxazole-5-carboxylic acid (1-{4-[3-chloro-5-methoxy-2-(3-methyl-[1,2,4]oxadiazol-5-yl)-indol-1-yl]-benzylcarbamoyl}-cyclopropyl)-amide] was tested. Which Ki [1] did it give?
Its Ki is less than 20 nM.

And the IC50 [2]?
The IC50 was less than 20 nM.
